For one test, the system named is PC-9 (Δ19del) cells. In words: Anti-PC-9 cell proliferation (Cell-Titer Glo, 72 hours). The test is classed as cell-based. Particulars: Homo sapiens, PC-9 cells, read-out: Anti-PC-9 (Δ19del) cell proliferative activity IC50. As to the method: RPMI 1640 medium, FBS fetal bovine serum and trypsin-EDTA were purchased from Giboco. DPBS was purchased from Corning, penicillin/streptomycin solution from Hyclone, Cell-Titer Glo reagent from Promega (1 kit, Cat. No. G7571). PC-9 was built by WuXi itself. Plate reader: Envision (Perkin Elmer).
(§1) 45 μL Culture media was added to columns 1, 2, 24 of a 384-well plate, repectively. The cell suspension was separated by Multi-drop, 45 μL (1000 cells) per well, which was placed and cultured in an incubator overnight. A compound was added to the source plate according to the requirement of Echo liquid-separation. The compound in the source plate was added to the interplate and diluted to an intermediate concentration, then the compound in the source plate and the interplate was added to the cell plate, and the cells were further cultured in the incubator for 72 hours. After 72 hours, Cell-Titer Glo reagent and cells were taken out and equilibrated at room temperature for 30 minutes. 25 μL Cell-Titer Glo reagent was separated into the cells in 384-well plate by Multi-drop, shaken at medium speed for 3 minutes, centrifuged at 1000 rpm for 2 minutes, and kept for 10 minutes. Envision was used to read the plate (Luminescence).

The next test deals with EGFR [d746-750] (Homo sapiens (Human), UniProt P00533, DEL746-750). In words: Kinase assay (HTRF KinEASE TK), EGFR exon 19 deletion enzyme. The test is classed as biochemical. From the text: (§2) Detection of inhibitory effects of compounds on enzymatic activities of EGFR WT, EGFR [L858R] and EGFR [d746-750]
EGFR [d746-750], sequence (P00533 other isoform, or with tags, fused parts or gaps del 1-667/del 746-750 limits assumed): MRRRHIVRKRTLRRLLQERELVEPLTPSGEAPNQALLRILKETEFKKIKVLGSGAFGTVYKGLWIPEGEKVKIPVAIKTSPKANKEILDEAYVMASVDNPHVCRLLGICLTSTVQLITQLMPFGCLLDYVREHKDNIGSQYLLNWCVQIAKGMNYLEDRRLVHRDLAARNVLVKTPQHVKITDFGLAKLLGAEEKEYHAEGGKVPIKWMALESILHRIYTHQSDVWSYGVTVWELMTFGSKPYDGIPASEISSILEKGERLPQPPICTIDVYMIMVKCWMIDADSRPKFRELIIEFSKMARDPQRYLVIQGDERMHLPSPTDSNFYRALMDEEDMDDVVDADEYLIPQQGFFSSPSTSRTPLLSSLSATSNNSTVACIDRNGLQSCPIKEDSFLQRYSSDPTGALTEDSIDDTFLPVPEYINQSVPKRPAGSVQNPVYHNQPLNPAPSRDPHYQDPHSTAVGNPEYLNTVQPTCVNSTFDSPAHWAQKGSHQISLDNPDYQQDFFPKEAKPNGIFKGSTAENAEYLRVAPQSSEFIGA
(§3) EGFR WT (Invitrogen, Cat. No PR7295B), EGFR [L858R] (Invitrogen, Cat. No PR7447A), EGFR [d746-750](Invitrogen, Cat. No PV6179), ATP (Sigma, Cat. No. A7699-1G), DMSO (Sigma, Cat. No. D2650), DTT (Sigma, Cat. No. 43815), 384-well plates compound dilution plates (Greiner, Cat. No. 781280), 384-well plates_test plates (Perkin Elmer, Cat. No. 6007299), HTRF KinEASE TK Kit (Cisbio, Cat. No. 62TKOPEB), MgCl2 (Sigma, Cat. No. M1028), Orthovanadate (Sigma, Cat. No. S6508), BSA (Sigma, Cat. No. A7030), HEPES (Life technology, Cat. No. 11344-041)
(§4) The final test concentrations of the test compounds ranged from 10 μM to 0.17 nM, with serial 3-fold dilutions and 11 gradient concentrations.
(§5) Buffer formulation: a buffer consisted of 50 mM HEPES (pH 7.5), 0.01% BSA, 5 mM MgCl2, 0.1 mM Orthovanadate. After the buffer was formulated, an enzyme and a substrate were mixed with pre-diluted compounds of varying concentrations, and placed at room temperature for 15 minutes. The reaction was initiated by adding ATP and incubated at room temperature for 60 minutes (wherein negative and positive controls were set up). The 10 μL reaction system consisted of a 2.5 μL compound, a 5 μL mixture of enzyme and substrate, and 2.5 μL ATP. After the reaction was complete, antibodies were added to test, the detection was performed with Evnvision after incubation at room temperature for 60 minutes, and data were collected. Data analysis and simulation were performed using XLfit5 software.
On the technique in general: In TR-FRET formats the signal depends on donor and acceptor labels being close together.

Another test concerns the target EGFR [L858R] (Homo sapiens (Human), UniProt P00533, L858R). In words: Kinase assay (HTRF KinEASE TK), EGFR L858R enzyme. The test is classed as biochemical.
From the text: as §2, §3, §4, §5

A further test has as its system A431 cells. In words: Anti-A431 cell proliferation. In kind it is cell-based. Particulars: Homo sapiens, A-431, read-out: Anti-A431 cell proliferative activity IC50. Here is the method:
as §1

Another test addresses EGFR WT (Homo sapiens (Human), UniProt P00533). Nature of the test: Kinase assay (HTRF KinEASE TK), wild-type EGFR enzyme. In kind it is biochemical.
From the text: as §2, §3, §4, §5

Data on 30 compounds can be found in patent publication US11040984B2, “Quinazoline compound for EGFR inhibition” (MEDSHINE DISCOVERY INC., priority 2016, dated 2021).

Structures can show the parent of a compound that is named as a salt.

EGFR [L858R], sequence (P00533 25-1210 L858R): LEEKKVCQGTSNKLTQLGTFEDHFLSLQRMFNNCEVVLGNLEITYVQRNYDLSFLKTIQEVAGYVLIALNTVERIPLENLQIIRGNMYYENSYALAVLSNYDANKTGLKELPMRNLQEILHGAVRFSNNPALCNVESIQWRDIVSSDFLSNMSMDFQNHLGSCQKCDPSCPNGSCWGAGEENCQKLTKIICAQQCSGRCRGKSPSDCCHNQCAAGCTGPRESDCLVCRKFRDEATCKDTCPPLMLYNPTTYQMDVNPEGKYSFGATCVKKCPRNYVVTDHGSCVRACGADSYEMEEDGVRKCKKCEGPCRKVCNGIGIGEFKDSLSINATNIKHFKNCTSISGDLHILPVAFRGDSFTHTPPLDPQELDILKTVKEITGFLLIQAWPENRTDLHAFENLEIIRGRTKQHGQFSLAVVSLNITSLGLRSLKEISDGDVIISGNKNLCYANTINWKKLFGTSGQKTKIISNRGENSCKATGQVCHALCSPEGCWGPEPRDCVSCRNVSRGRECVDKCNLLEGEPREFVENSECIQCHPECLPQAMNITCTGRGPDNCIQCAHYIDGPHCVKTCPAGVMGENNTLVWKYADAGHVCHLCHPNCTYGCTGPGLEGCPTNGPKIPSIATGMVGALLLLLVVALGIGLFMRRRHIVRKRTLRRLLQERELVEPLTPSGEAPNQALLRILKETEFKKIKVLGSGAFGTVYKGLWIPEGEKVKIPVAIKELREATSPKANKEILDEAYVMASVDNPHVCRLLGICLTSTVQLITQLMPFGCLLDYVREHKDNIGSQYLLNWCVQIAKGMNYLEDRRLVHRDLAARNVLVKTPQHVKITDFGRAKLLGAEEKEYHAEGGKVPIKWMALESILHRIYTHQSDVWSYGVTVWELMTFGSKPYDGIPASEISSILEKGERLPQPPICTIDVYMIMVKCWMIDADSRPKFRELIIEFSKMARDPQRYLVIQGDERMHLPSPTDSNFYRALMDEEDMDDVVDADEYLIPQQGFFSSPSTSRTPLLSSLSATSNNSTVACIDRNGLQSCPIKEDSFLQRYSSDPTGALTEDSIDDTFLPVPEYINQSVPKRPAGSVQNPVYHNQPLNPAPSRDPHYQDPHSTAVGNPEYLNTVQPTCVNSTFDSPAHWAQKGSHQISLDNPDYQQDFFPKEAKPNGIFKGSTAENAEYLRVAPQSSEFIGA
EGFR WT, sequence (P00533 25-1210): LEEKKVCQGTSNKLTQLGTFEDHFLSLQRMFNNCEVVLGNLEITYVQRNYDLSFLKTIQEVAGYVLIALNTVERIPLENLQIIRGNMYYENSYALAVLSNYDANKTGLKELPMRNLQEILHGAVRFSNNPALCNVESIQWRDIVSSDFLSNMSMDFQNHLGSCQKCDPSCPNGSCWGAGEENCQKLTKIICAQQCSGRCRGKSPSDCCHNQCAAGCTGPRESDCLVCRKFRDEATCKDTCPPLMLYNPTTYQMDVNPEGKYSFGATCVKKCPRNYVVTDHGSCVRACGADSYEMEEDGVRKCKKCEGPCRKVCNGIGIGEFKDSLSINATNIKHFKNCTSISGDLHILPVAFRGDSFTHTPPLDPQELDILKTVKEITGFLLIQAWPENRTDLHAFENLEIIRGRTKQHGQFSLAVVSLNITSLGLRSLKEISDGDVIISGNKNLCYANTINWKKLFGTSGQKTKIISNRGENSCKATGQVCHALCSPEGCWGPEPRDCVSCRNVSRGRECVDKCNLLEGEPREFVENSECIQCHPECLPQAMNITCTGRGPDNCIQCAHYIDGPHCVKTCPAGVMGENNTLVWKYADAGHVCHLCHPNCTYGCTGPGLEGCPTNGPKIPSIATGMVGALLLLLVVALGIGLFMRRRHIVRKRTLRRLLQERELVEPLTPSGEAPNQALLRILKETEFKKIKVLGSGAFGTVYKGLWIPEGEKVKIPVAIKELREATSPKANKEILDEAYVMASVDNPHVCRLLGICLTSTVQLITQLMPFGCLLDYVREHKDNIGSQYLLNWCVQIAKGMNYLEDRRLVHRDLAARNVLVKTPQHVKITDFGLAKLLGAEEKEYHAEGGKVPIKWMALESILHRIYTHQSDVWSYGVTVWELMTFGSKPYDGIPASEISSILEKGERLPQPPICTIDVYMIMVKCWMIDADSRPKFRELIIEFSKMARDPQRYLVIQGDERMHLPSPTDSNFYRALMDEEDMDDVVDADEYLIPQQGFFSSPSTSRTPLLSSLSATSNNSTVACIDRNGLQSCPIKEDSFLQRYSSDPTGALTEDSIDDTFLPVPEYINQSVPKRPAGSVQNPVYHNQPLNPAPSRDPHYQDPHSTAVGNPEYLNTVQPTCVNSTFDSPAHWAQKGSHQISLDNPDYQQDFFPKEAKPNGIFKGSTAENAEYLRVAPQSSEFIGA

Broadly, the IC50 is the concentration needed to halve the response being measured. With `COc1cc2ncnc(Nc3cccc(Cl)c3F)c2cc1N1CC2(CN(C3CC3)C2)OC1=O` [Hydrochloride of compound 31], in the test on PC-9 (Δ19del) cells, the IC50 amounted to 15.3 nM.
As to `COc1cc2ncnc(Nc3cccc(Cl)c3F)c2cc1N1CC2(CCN(C)CC2)OC1=O` [Formate of compound 3], the IC50 against EGFR [d746-750] was 0.02 nM; against EGFR [L858R], 0.1 nM; in the test with PC-9 (Δ19del) cells it was 3 nM; in the test with A431 cells it was 96 nM.
`COc1cc2ncnc(Nc3ccc(F)c(Cl)c3)c2cc1N1CC2(CCN(C)CC2)OC1=O` [Formate of compound 2]: the IC50 at EGFR [d746-750] worked out at 16.5 nM; against EGFR [L858R], 48.1 nM; in the test with PC-9 (Δ19del) cells, 165 nM.
Turning to `COc1cc2ncnc(Nc3cccc(Cl)c3F)c2cc1N1C[C@H](CN(C)C)OC1=O` [Compound 18], the half-maximal inhibitory concentration (IC50) against EGFR WT is below 0.015 nM; against EGFR [d746-750], 0.05 nM; in the test on PC-9 (Δ19del) cells, 12.5 nM; in the test with A431 cells, 59 nM.
For `COc1cc2ncnc(Nc3cccc(C)c3F)c2cc1N1CC2(CN(C)C2)OC1=O` [Formate of compound 48], the IC50 with PC-9 (Δ19del) cells came to 8.55 nM.
Same read-out and setting: the result for `COc1cc2ncnc(Oc3cccc(Cl)c3)c2cc1N1CC2(CN(C)C2)OC1=O` [Compound 27] reads 84 nM; that for `COc1cc2ncnc(Nc3ccc(Cl)cc3F)c2cc1N1CC2(CN(C)C2)OC1=O` [Formate of compound 46], 29.8 nM.
In the case of `COc1cc2ncnc(Nc3ccc(F)c(Cl)c3F)c2cc1N1CC2(CCN(C)CC2)CC1=O` [Formate of compound 10], the IC50 with PC-9 (Δ19del) cells came out at 6.01 nM; in the test with A431 cells, 73 nM.
Turning to `COc1cc2ncnc(Nc3cccc(Cl)c3F)c2cc1N1CC2(CN(CCF)C2)OC1=O` [Compound 29], the IC50 with PC-9 (Δ19del) cells was 14.7 nM.
Regarding `COc1cc2ncnc(Oc3cccc(Cl)c3)c2cc1N1CC2(CCN(C)CC2)OC1=O` [Compound 16], in the test with PC-9 (Δ19del) cells, the IC50 amounted to 540 nM.
Take `COc1cc2ncnc(Nc3cccc(Cl)c3F)c2cc1N1CC2(CN(C)C2)OC1=O` [Formate of compound 13]: the IC50 was found to be 0.016 nM on EGFR WT, 0.052 nM on EGFR [d746-750] and 5.34 nM in the test with PC-9 (Δ19del) cells.
As for `COc1cc2ncnc(-n3ccc4c(Cl)cccc43)c2cc1N1CC2(CCN(C)CC2)OC1=O` [Formate of compound 19], in the test with PC-9 (Δ19del) cells, the IC50 turned out to be 1280 nM.
With `CC(C)N1CC2(CN(c3ccc4ncnc(Nc5cccc(Cl)c5F)c4c3)C(=O)O2)C1` [Formate of compound 33], the IC50 on EGFR WT was determined as 0.114 nM; on EGFR [d746-750], 0.29 nM.
For `COc1cc2ncnc(Nc3cccc(Cl)c3OC)c2cc1N1CC2(CCN(C)CC2)OC1=O` [Formate of compound 4], the values for the IC50 on EGFR [d746-750], on EGFR [L858R] and in the test with PC-9 (Δ19del) cells were 55.4 nM, 30.1 nM and 396 nM, respectively.
For `COc1cc2ncnc(Nc3cccc(Cl)c3F)c2cc1N1C(=O)OC2CN(C)CCC21` (stereo not shown) [Formate of compound 17], the IC50 in the test on PC-9 (Δ19del) cells came to 29.4 nM.
Turning to `COc1cc2ncnc(Nc3ccc(Cl)c(Cl)c3F)c2cc1N1CC2(CCN(C)CC2)OC1=O` [Formate of compound 6], the IC50 was below 0.015 nM against EGFR WT, 0.07 nM against EGFR [d746-750] and 4.9 nM in the test with PC-9 (Δ19del) cells.
Regarding `COC[C@@H]1CN(c2cc3c(Nc4cccc(Cl)c4F)ncnc3cc2OC)C(=O)O1` [Compound 23], the IC50 on EGFR WT turned out to be 0.038 nM; against EGFR [d746-750], 0.17 nM; in the test with PC-9 (Δ19del) cells, 24 nM.
Take `CN1CC2(C1)CN(c1cc3c(Nc4cccc(Cl)c4F)ncnc3cc1OC(F)F)C(=O)O2` [Compound 45]: the IC50 with PC-9 (Δ19del) cells came to 8.86 nM.
With `COc1cc2ncnc(Nc3cccc(Cl)c3F)c2cc1N1CC2(CN(C(C)C)C2)OC1=O` [Compound 26], the values for the half-inhibitory concentration (IC50) with PC-9 (Δ19del) cells and in the test on A431 cells were 7.2 nM and 98 nM, respectively.
In the case of `COc1cc2ncnc(-c3cn(C)c4ccccc34)c2cc1N1CC2(CN(C)C2)OC1=O` [Formate of compound 28], the IC50 in the test with PC-9 (Δ19del) cells turned out to be 250 nM.
`CCN1CC2(C1)CN(c1cc3c(Nc4cccc(Cl)c4F)ncnc3cc1OC)C(=O)O2` [Compound 25]: the IC50 at EGFR WT was found to be 0.022 nM; at EGFR [d746-750], 0.069 nM; with PC-9 (Δ19del) cells, 6.76 nM; with A431 cells, 64 nM.
With `CCC1CN(C)CCC12CN(c1cc3c(Nc4cccc(Cl)c4F)ncnc3cc1OC)C(=O)O2` (stereo not shown) [Formate of compound 21], the IC50 with PC-9 (Δ19del) cells was 2.96 nM.
With `COc1cc2ncnc(Nc3ccc(F)c(Cl)c3F)c2cc1N1CC2(CN(C)C2)OC1=O` [Compound 49], the IC50 with PC-9 (Δ19del) cells came to 4.2 nM.
For `COc1cc2ncnc(Nc3c(F)ccc(Cl)c3F)c2cc1N1CC2(CCN(C)CC2)OC1=O` [Formate of compound 24], the IC50 with PC-9 (Δ19del) cells is 7.53 nM.
Consider `COc1cc2ncnc(Nc3cccc(Cl)c3F)c2cc1N1CC2(COC2)OC1=O` [Formate of compound 15], for which the IC50 in the test with PC-9 (Δ19del) cells worked out at 23 nM.
For the compound `COc1cc2ncnc(Nc3cccc(Cl)c3F)c2cc1N1CC2(CCN(C(C)C)CC2)OC1=O` [Formate of compound 5], the IC50 in the test with PC-9 (Δ19del) cells turned out to be 2.73 nM.
Consider `Cc1cc2ncnc(Nc3cccc(Cl)c3F)c2cc1N1CC2(CCN(C)CC2)OC1=O` [Formate of compound 22], for which the IC50 with PC-9 (Δ19del) cells was determined as 41.4 nM.
Regarding `CN1CCC2(CC1)CN(c1ccc3ncnc(Nc4cccc(Cl)c4F)c3c1)C(=O)O2` [Formate of compound 12], the IC50 at EGFR WT was 0.017 nM; on EGFR [d746-750], 0.085 nM; in the test with PC-9 (Δ19del) cells it was 9.11 nM; with A431 cells, 46 nM.
The matching figures for `CCCN1CC2(C1)CN(c1cc3c(Nc4cccc(Cl)c4F)ncnc3cc1OC)C(=O)O2` [Hydrochloride of compound 30]: 0.021 nM, 0.052 nM, 11.2 nM and 71 nM.
On to `COc1cc2ncnc(Nc3cccc(Cl)c3F)c2cc1N1CC2(CCN(C)CC2C)OC1=O` (stereo not shown) [Formate of compound 20], for which the IC50 in the test with PC-9 (Δ19del) cells is 2.17 nM.
